Source: ChEMBL document CHEMBL1124385, “A new series of tricyclic (aryloximino)propanolamines displaying very high selective beta 2-blocking properties” (J Med Chem, 1989)

What was measured:
[1] = target: Beta-2 adrenergic receptor (Cavia porcellus, UniProt Q8K4Z4); assay: Beta-2 adrenergic receptor blocking was assessed from 50% inhibition of the isoproterenol submaximal response on isolated Guinea pig trachea(IT)
[2] = target: Beta-1 adrenergic receptor (Cavia porcellus, UniProt B0FL73); assay: Beta-1 adrenergic receptor blocking was assessed from 50% inhibition of the isoproterenol submaximal response on isolated Guinea pig atria(IA)
Sequence of Beta-1 adrenergic receptor (B0FL73 whole entry): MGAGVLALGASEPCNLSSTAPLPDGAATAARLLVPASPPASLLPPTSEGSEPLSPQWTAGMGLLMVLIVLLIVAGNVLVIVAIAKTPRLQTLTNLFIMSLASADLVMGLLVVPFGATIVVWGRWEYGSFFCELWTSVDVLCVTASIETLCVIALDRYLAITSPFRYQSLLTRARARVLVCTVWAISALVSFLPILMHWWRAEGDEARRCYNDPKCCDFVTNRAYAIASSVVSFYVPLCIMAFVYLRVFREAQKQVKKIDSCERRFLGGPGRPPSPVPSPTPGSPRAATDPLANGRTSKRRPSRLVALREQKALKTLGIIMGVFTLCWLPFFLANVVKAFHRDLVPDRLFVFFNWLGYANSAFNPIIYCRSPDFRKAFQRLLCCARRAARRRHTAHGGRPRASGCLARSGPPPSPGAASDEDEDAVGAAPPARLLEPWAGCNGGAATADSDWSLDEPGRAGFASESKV

[3] = Selectivity, ratio of IC50 on guinea pig atria and guinea pig trachea

Sequence of Beta-2 adrenergic receptor (Q8K4Z4 whole entry): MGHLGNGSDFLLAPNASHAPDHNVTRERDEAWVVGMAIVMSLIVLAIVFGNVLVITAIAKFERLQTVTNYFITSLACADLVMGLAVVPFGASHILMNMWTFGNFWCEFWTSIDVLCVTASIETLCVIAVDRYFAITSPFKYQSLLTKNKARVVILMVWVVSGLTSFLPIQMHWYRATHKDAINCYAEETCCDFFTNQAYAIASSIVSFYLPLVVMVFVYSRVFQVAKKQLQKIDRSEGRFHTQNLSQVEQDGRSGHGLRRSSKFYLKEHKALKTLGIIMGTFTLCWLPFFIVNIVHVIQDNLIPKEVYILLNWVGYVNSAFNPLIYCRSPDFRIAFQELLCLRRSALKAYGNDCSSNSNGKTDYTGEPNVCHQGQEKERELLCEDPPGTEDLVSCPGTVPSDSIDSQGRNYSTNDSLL

| Structure (SMILES) | IC50 [1] | IC50 [2] | Ratio [3] |
| --- | --- | --- | --- |
| COC12CCCCC1c1ccc(F)cc1/C2=N/OCC(O)CNC(C)(C)C (stereo unspecified) | 0.45 µM | 0.83 µM |  |
| COC12CCCCC1c1ccc(F)cc1/C2=N/OCC(O)CNC(C)C (stereo unspecified) | 0.79 µM | 19 µM |  |
| COc1cc(CCNCC(O)CO/N=C2/c3ccccc3C3CCCCCC23OC)cc(OC)c1 (stereo unspecified) | > 10 µM | 13 µM |  |
| COc1cc(CCNCC(O)CO/N=C2/c3cc(F)ccc3C3CCCCC23OC)cc(OC)c1 (stereo unspecified) | > 10 µM | > 10 µM |  |
| CC(C)NCC(O)CO/N=C1/c2ccccc2C2CCCCCC12O (stereo unspecified) | > 10 µM | 0.89 µM |  |
| COC12CCCCCCCCCC1c1ccccc1/C2=N/OCC(O)CNC(C)C (stereo unspecified) | > 10 µM | > 10 µM |  |
| COC12CCCCCC1c1ccccc1/C2=N/OCC(O)CNC(C)(C)C (stereo unspecified) | 0.44 µM | 0.16 µM |  |
| CC(C)(C)NCC(O)CO/N=C1/c2ccccc2C2CCCCCC12OCCO (stereo unspecified) | 7.9 µM | > 1 µM |  |
| COC12CCCCCC1c1ccccc1/C2=N/OCC(O)CNC(C)C (stereo unspecified) | 0.035 µM | 3 µM |  |
| CC(C)(C)NCC(O)CO/N=C1/c2ccccc2C2CCCCCC12O (stereo unspecified) | 0.44 µM | 0.34 µM |  |
| CC(C)(C)NCC(O)CO/N=C1/c2ccccc2C2CCCCC12O (stereo unspecified) | 31 µM | 2.8 µM | 0.09 |
| COc1cc(CCNCC(O)CO/N=C2/c3ccccc3C3CCCCCCCCCC23OC)cc(OC)c1 (stereo unspecified) | > 10 µM | > 10 µM |  |
| COC12CCCCC1c1ccccc1/C2=N/OCC(O)CNC(C)(C)C (stereo unspecified) | 0.035 µM | 12 µM | 33 |
| CC(C)(C)NCC(O)CO/N=C1/c2ccccc2C2CCCCC12OCCO (stereo unspecified) | 3.1 µM | 0.85 µM | 0.28 |
| CC(C)NCC(O)CO/N=C1/c2ccccc2C2CCCCCC12OCCO (stereo unspecified) | > 10 µM | > 10 µM |  |
| CC(C)NCC(O)CO/N=C1/c2ccccc2C2CCCCC12OCCO (stereo unspecified) | > 10 µM | > 10 µM |  |
| COC12CCCCC1c1ccccc1/C2=N/OCC(O)CNC(C)C (stereo unspecified) | 0.3 µM | 1.2 µM |  |
| COc1cc(CCNCC(O)CO/N=C2/c3ccccc3C3CCCCC23OC)cc(OC)c1 (stereo unspecified) | > 10 µM | > 10 µM |  |
| CC(C)NCC(O)CO/N=C1/c2ccccc2C2CCCCC12O (stereo unspecified) | > 10 µM | > 10 µM |  |
